Tested on: OSR1-GFP & SIX2-tdTomato reporter human iPS cell line
Assay: SIX2-positive cell induction method 1, SIX2-tdTomato-positive cell rate by flow cytometer
Type: cell-based
Settings: induction method 1; stage 3 medium with 5 ng/ml TGFβ1 and 0.5 μM Dorsomorphin, 15 to 22 days
Experimental: The OSR1-GFP & SIX2-tdTomato reporter human iPS cell line obtained by the method in Example 1 was cultured at 37° C. in a 2-5% CO2 atmosphere to become confluent on 10-cm dishes containing a primate ES/iPS cell medium (ReproCELL) supplemented with 5 ng/ml bFGF (Wako) with the use of SNL cells (McMahon, A. P. and Bradley, A. (1990) Cell 62; 1073-1085) (the cells being treated with 15.5 μg/ml mitomycin (Kyowa Hakko Kirin Co., Ltd.) for 2 to 3 hours and seeded at a density of 3×10^5 cells/10-cm dish) as feeder cells. A CTK solution (2.5% Trypsin (Invitrogen), 1 mg/ml Collagenase IV (Invitrogen), 0.1 M CaCl2, 10 mL KnockOut SR (Invitrogen), and 29.5 mL H2O) was added to dissociate the cells. After removal of the feeder cells, the dissociated cells were suspended in a DMEM/F12 medium containing 1 μM CHIR99021 (Stemgent, 04-0004), 100 ng/ml Activin A (R&D Systems, 338-AC), 1% GlutaMAX (100×) (Invitrogen, 35050-061), 2% FBS (Hyclone), and 0.5% PenStrep (Invitrogen, 10565). Then, the cell suspensions were transferred to a low cell binding plate (LOW CELL BIND 6 WELL DISH (Nunc, 145383)) such that each well contained one-third to one-sixth of the cell suspension obtained from the 10-cm dish, followed by suspension culture at 37° C. in a 5% CO2 atmosphere for 2 days.
The cell mass obtained at stage 1 was transferred to a 24-well or 6-well dish coated with Matrigel (BD Matrigel Matrix Growth Factor Reduced (BD Biosciences, 356230) (the dish being coated with 0.2 mg/ml Matrigel in DMEM and treated at 37° C. for 30 minutes or at 4° C. overnight) or a 24-well or 6-well dish coated with Synthemax (Corning Synthemax II-SC Substrate (Corning, 3535XX1)) (the dish being coated with Synthemax diluted 40-fold with sterile water and treated at room temperature for 2 hours). The medium was exchanged with a DMEM/F12 medium containing 1 μM CHIR99021, 100 ng/ml BMP7 (Recombinant human BMP7 (R&D Systems, 3534-BP)), 0.1% 2-mercaptoethanol (1000×) (Invitrogen, 21985), 1% GlutaMAX (100×), 10% KnockOut SR (Invitrogen), 0.1 mM MEM NEAA (Invitrogen, 11140), and 0.5% PenStrep, followed by adhesion culture at 37° C. in a 5% CO2 atmosphere for 3 to 6 days. In the case of culture for 3 days or more, the medium was exchanged every 3 days with a medium having the same conditions.
The medium was removed from the cells obtained at stage 2. The cells were washed with PBS and then the medium was exchanged with a DMEM/F12 medium containing 5 ng/ml TGFβ1 (Peprotech, 100-21C), 0.5 μM Dorsomorphin (AMPK Inhibitor, Compound C (Merck, 171260)), 0.1% 2-mercaptoethanol (1000×), 1% GlutaMAX (100×), 10% KnockOut SR, 0.1 mM MEM NEAA, and 0.5% PenStrep, followed by suspension culture at 37° C. in a 5% CO2 atmosphere for 15 to 22 days. In this case, the medium was exchanged every 3 days with a medium having the same conditions.
At stage 3 of SIX2-positive cell induction method 1, Dorsomorphin was replaced with 100 ng/ml Noggin (Peprotech), 0.5 μM LDN193189 (Axon MedChem, 1509), or 0.5 μM DMH1 (Tocris, 4126) for differentiation induction in the aforementioned manner.
At stage 3 of SIX2-positive cell induction method 1, TGFβ1 was exchanged with 50 μM IDE1 (Tocris) or 50 μM IDE2 (Tocris) for differentiation induction in the aforementioned manner.
At stage 3 of SIX2-positive cell induction method 1, Dorsomorphin was replaced with 0.5 μM LDN193189, while TGFβ1 with 10 ng/ml TGFβ2 (Peprotech) or 10 ng/ml TGFβ3 (R&D), for differentiation induction in the aforementioned manner. As a result, the SIX2-positive cell rates were 8.6% and 9.3%, respectively (FIGS. 2G and 2H).

Molecule	SIX2-tdTomato-positive cell rate [%]
c1cc(-c2cnn3cc(-c4ccc(OCCN5CCCCC5)cc4)cnc23)ccn1 [Dorsomorphin, 6-[4-(2-piperidin-1-yl-ethoxy)phenyl]-3-pyridin-4-yl-pyrazolo[1,5-a]pyrimidine]	21.5±2.0
TGFβ1: TGFβ signaling activator protein (Peprotech)	21.5±2.0
